{
  "source": "ChEMBL document CHEMBL1201862",
  "about": "“PubChem BioAssay data set” (2004)",
  "key": {"[1]": {"assay": "non-specific 3'UTR reporter inhibition in Clone20-Shn3RL – cell-based, Renilla luciferase, cherry-picked, counter-screen for Shn3 inhibitor project, dose response (AID 624133)", "assay_type": "functional"}, "[2]": {"assay": "loss of viability in HepG2 cells – cell-based, CellTiter-Glo, cherry-picked, cytotoxicity control for Shn3 inhibitor project, dose response (AID 624134)", "assay_type": "functional"}, "[3]": {"assay": "Shn3 3'UTR reporter signal decrease – cell-based, Clone20 osteoblasts, firefly luciferase, cherry-pick, set 2, Schnurri-3 inhibitor project, dose response (AID 720490);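 note: actives lower the luminescence signal as inhibitors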", "assay_type": "functional"}, "[4]": {"assay": "reduction of Shn3 3'UTR-driven luciferase in osteoblasts – cell-based, Clone20 osteoblasts, firefly luciferase, cherry-picked, dose response (AID 624132)", "assay_type": "functional"}, "[5]": {"assay": "HEK293 Cytotoxicity Assay Measured in Cell-Based System Using Plate Reader - 7071-01_Inhibitor_Dose_CherryPick_Activity_Set2.", "assay_type": "functional"}, "HEK293": {"test_system": "HEK293", "assay": "viability loss in HEK293T cells – cell-based, ATP luminescence, cherry-pick samples, cytotoxicity control, dose response (AID 687005);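 note: cells exposed to compound for 48 hours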", "assay_type": "functional", "conditions": "Homo sapiens"}, "[6]": {"assay": "Late-stage results from the probe development effort to identify antagonists of arginine vasopressin receptor 1a (AVPR1a): fluorescence-based cell-based dose response AVPR1a inhibition assay.", "assay_type": "functional"}, "Vasopressin V2 receptor": {"target": "Vasopressin V2 receptor (Homo sapiens, UniProt P30518)", "sequence (P30518 whole entry)": "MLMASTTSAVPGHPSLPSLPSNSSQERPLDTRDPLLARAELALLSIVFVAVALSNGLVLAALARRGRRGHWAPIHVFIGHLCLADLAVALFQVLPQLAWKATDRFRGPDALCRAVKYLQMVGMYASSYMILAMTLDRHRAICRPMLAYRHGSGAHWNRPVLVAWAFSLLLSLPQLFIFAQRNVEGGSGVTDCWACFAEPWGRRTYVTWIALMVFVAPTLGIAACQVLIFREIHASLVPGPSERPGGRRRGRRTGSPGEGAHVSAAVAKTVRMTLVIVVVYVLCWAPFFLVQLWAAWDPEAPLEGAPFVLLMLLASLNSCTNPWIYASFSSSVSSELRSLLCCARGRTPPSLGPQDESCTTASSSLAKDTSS", "assay": "Late-stage results from the probe development effort to identify antagonists of arginine vasopressin receptor 1a (AVPR1a): fluorescence-based cell-based dose response AVPR2 inhibition counterscreen assay.", "assay_type": "functional"}, "[7]": {"assay": "Late-stage results from the probe development effort to identify antagonists of arginine vasopressin receptor 1a (AVPR1a): fluorescence-based cell-based dose response OXTR inhibition counterscreen assay.", "assay_type": "functional"}, "Vasopressin V1b receptor": {"target": "Vasopressin V1b receptor (Homo sapiens, UniProt P47901)", "sequence (P47901 whole entry)": "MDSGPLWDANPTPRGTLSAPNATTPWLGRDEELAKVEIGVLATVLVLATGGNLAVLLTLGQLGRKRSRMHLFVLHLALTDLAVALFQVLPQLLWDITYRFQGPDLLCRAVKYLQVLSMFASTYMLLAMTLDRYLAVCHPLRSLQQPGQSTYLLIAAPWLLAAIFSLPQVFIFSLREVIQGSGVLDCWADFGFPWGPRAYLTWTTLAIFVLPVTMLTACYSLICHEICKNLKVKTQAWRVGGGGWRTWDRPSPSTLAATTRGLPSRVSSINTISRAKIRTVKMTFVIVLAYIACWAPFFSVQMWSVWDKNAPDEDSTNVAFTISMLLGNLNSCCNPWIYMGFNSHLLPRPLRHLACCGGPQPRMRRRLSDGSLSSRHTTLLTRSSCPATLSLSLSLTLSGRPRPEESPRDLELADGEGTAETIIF", "assay": "Late-stage results from the probe development effort to identify antagonists of arginine vasopressin receptor 1a (AVPR1a): fluorescence-based cell-based dose response AVPR1b inhibition counterscreen assay.", "assay_type": "functional"}, "[8]": {"assay": "P. falciparum Dd2 growth inhibitors, dose response, SYBR Green, cherry-picked samples (AID 1159567)", "assay_type": "functional, cell-based"}, "[9]": {"assay": "toxicity to human hepatoma HepG2 cells – cell-based, cherry-picked samples, cytotoxicity control, dose response (AID 1159577)", "assay_type": "functional"}, "[10]": {"assay": "IGROV1 cell killing – plate reader, dry powder samples, PAX8 inhibitor project, dose response (AID 743043)", "assay_type": "functional, cell-based", "conditions": "IGROV-1"}, "[11]": {"assay": "A2780 cell killing – plate reader, dry powder samples, cytotoxicity control, dose response (AID 743046)", "assay_type": "functional, cell-based"}, "[12]": {"assay": "general cell-killing toxicity readout – plate reader, dry powder samples, cytotoxicity control for PAX8 inhibitor project, dose response (AID 743021)", "assay_type": "functional, cell-based"}},
  "note": "Active and inactive are the calls of the source.",
  "data": [
    {"smiles": "Cc1ccc([C@@H]2CC(=O)[C@@H]3CN(S(=O)(=O)c4ccccc4C)[C@H](c4ccc(Cl)cc4)C[C@@H]3N2S(=O)(=O)c2ccc(C)cc2)cc1", "values": [
      {"measurement": "AC50", "setting": "[1]", "value": "3.29 µM (active)"},
      {"measurement": "AC50", "setting": "[2]", "value": "36.7 µM (active)"},
      {"measurement": "AC50", "setting": "[3]", "value": "0.672 µM (active)"},
      {"measurement": "AC50", "setting": "[4]", "value": "0.361 µM (active)"}
    ]},
    {"smiles": "CN1C(=O)c2cc(NC(=O)NC3CCCC3)ccc2OC[C@H]2O[C@@H](CC(=O)NCC3CC3)CC[C@@H]21", "values": [
      {"measurement": "AC50", "setting": "[5]", "value": "> 57 µM (inactive)"},
      {"measurement": "AC50", "setting": "HEK293", "value": "> 57 µM (inactive)"}
    ]},
    {"smiles": "Cc1noc(C)c1NC(=O)Nc1ccc2c(c1)C(=O)N([C@H](C)CO)C[C@@H](C)[C@H](CN(C)S(C)(=O)=O)OCCCC[C@@H](C)O2", "values": [
      {"measurement": "AC50", "setting": "[5]", "value": "16.3 µM (active)"},
      {"measurement": "AC50", "setting": "HEK293", "value": "16.3 µM (active)"}
    ]},
    {"smiles": "O=C(C1CCN(c2ncccc2Cl)CC1)N(CC1CC1)c1ccc(Cl)cc1", "values": [
      {"measurement": "IC50", "setting": "[6]", "value": "0.0232 µM (active)"},
      {"measurement": "IC50", "setting": "Vasopressin V2 receptor", "value": "11.3 µM (inactive)"},
      {"measurement": "IC50", "setting": "[7]", "value": "1.7 µM (active)"},
      {"measurement": "IC50", "setting": "Vasopressin V1b receptor", "value": "7.1 µM (active)"}
    ]},
    {"smiles": "Cc1ccc(-c2ccc([C@@H]3[C@@H]4CN(Cc5ccccc5F)C[C@H]3N4)cc2)cc1", "values": [
      {"measurement": "AC50", "setting": "[8]", "value": "4.05 µM (active)"},
      {"measurement": "AC50", "setting": "[9]", "value": "10.3 µM (active)"},
      {"measurement": "AC50", "setting": "[10]", "value": "55.4 µM (active)"},
      {"measurement": "AC50", "setting": "[11]", "value": "63.6 µM (active)"},
      {"measurement": "AC50", "setting": "[12]", "value": "13.2 µM (active)"}
    ]}
  ]
}
